# Assay results: US12583866B2, “Pyrido[2,3-b][1,4]oxazines or tetrahydropyrido[2,3-b][1,4]oxazepines as IAP antagonists” (BEIGENE, LTD., priority 2020, dated 2026)
# Key:
# [1] = biological target: T1, recombinant human cIAP2-BIR3 protein (Homo sapiens, UniProt Q13489); experiment: Recombinant human c-IAP2-BIR3 biochemical assay (HTRF, peptide displacement); details: 3.7 nM cIAP2-BIR3, 3.7 nM AbuRPF-K(5-Fam)-NH2 peptide, read-out: Protein binding IC50 (nM) c-IAP2
# T1 construct: recombinant human cIAP2-BIR3 protein; purchased Reaction biology APT-11-372
# Protocol: II. Recombinant Human c-IAP2-BIR3 Biochemical Assay
# (§1) Compounds disclosed herein were tested for blocking of recombinant human cIAP2-BIR3 protein (Cat: APT-11-372, Reaction biology) with its peptide in an assay based on Homogeneous Time Resolved Fluorescence. 3.7 nM recombinant human cIAP2-BIR3 protein was pre-incubated with a serial dilution of compounds disclosed herein (maximum concentration is 10 uM, 4-fold serially diluted, 10 points) at room temperature for 1 hour in an assay buffer containing 20 mM HEPES, pH 7.5, 50 mM NaCl, 0.005% Tween-20, 1 mM DTT. Then 3.7 nM AbuRPF-K(5-Fam)-NH2 (Cat: 709702, GL Biochem) was added to plate incubated at room temperature for 1 hour. Mab Anti-6His Tb cryptate Gold (Cat: 61HI2TLB, Cisbio Bioassays) was added to plate and further incubated at room temperature for 1 hour. The HTRF signals (ex337 nm, em520 nm/490 nm) were read on BMG PHERAstar FS instrument. The inhibition percentage of cIAP2-BIR3 interaction with its peptide in presence of increasing concentrations of compounds was calculated based on the ratio of fluorescence at 520 nm to that at 490 nm. The IC50 for each compound was derived from fitting the data to the four-parameter logistic equation by Dotmatics and summarized in table 1.
# [2] = biological target: T2, recombinant human cIAP1-BIR3 protein (Homo sapiens, UniProt Q13490); experiment: Recombinant human c-IAP1-BIR3 biochemical assay (HTRF, peptide displacement); details: 1.2 nM cIAP1-BIR3, 3 nM AbuRPF-K(5-Fam)-NH2 peptide, read-out: Protein binding IC50 (nM) c-IAP1
# T2 construct: recombinant human cIAP1-BIR3 protein; purchased Reaction biology APT-11-370
# Protocol: I. Recombinant human c-IAP1-BIR3 biochemical assay
# as §1, with “human cIAP1-BIR3” for “human cIAP2-BIR3”, “(Cat: APT-11-370,” for “(Cat: APT-11-372,”, “Fluorescence. 1.2” for “Fluorescence. 3.7”, “Then 3” for “Then 3.7”, “nM AbuRPF-K (5-Fam)-NH2” for “nM AbuRPF-K(5-Fam)-NH2”, “of cIAP1-BIR3” for “of cIAP2-BIR3”
# [3] = biological target: T3, recombinant human XIAP-BIR3 protein (Homo sapiens, UniProt P98170); experiment: Recombinant human XIAP-BIR3 biochemical assay (HTRF, peptide displacement); details: 3.7 nM XIAP-BIR3, 7.6 nM AbuRPF-K(5-Fam)-NH2 peptide, read-out: Protein binding IC50 (nM) XIAP
# T3 construct: recombinant human XIAP-BIR3 protein; purchased Reaction biology APT-11-374
# Protocol: III. Recombinant Human XIAP-BIR3 Biochemical Assay
# as §1, with “human XIAP-BIR3” for “human cIAP2-BIR3”, “(Cat: APT-11-374,” for “(Cat: APT-11-372,”, “Then 7.6” for “Then 3.7”, “of XIAP-BIR3” for “of cIAP2-BIR3”
# T1 sequence (Q13489 238-349 limits assumed): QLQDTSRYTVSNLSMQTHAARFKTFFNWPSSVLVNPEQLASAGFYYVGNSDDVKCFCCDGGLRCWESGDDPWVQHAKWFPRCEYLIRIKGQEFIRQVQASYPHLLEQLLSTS
# T2 sequence (Q13490 253-363 limits assumed): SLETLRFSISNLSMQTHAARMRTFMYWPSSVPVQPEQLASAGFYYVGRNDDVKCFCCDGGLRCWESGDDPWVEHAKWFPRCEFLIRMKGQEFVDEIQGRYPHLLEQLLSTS
# T3 sequence (P98170 241-356 limits assumed): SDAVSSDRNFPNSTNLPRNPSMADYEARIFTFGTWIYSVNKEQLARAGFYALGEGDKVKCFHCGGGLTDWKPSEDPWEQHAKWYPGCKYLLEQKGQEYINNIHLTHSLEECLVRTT
IC50 [1] [nM],IC50 [2] [nM],IC50 [3] [nM],SMILES
0.53,0.37,8.7,C[C@@H]1CN(CC(=O)N2c3cc(Cc4ccc(F)cc4)c(CN4CCOCC4)nc3OC[C@@H]2C)[C@@H](CN2[C@H](C)COC[C@H]2C)CN1 [Compound 92]
0.35,0.2,4.4,"C[C@@H]1CN(CC(=O)N2c3cc(Cc4ccc(F)cc4)c(NS(=O)(=O)C4CC4)nc3OC[C@@H]2C)[C@@H](CN2[C@H](C)COC[C@H]2C)CN1 [Compound 123, N—((S)-1-(2-((2R,5R)-2-(((3R,5R)-3,5-dimethylmorpholino)methyl)-5-methylpiperazin-1-yl)acetyl)-7-(4-fluorobenzyl)-2-methyl-2,3-dihydro-1H-pyrido[2,3-b][1,4]oxazin-6-yl)cyclopropanesulfonamide]"
0.23,0.21,3.75,"C[C@@H]1CN(CC(=O)N2c3cc(Cc4ccc(F)cc4)c(C(=O)NC[C@H]4CCOC4)nc3OC[C@@H]2C)[C@@H](CN2[C@H](C)COC[C@H]2C)CN1 [Compound 96, (S)-1-(2-((2R,5R)-2-(((3R,5R)-3,5-dimethylmorpholino)methyl)-5-methylpiperazin-1-yl)acetyl)-7-(4-fluorobenzyl)-2-methyl-N—(((R)-tetrahydrofuran-3-yl)methyl)-2,3-dihydro-1H-pyrido[2,3-b][1,4]oxazine-6-carboxamide]"
0.44,0.17,4.2,"C[C@@H]1CN(CC(=O)N2c3cc(Cc4ccc(F)cc4)c(C(=O)N4CC[C@H](F)C4)nc3OC[C@@H]2C)[C@@H](CN2[C@H](C)COC[C@H]2C)CN1 [Compound 100, 2-((2R,5R)-2-(((3R,5R)-3,5-dimethylmorpholino)methyl)-5-methylpiperazin-1-yl)-1-((S)-7-(4-fluorobenzyl)-6-((S)-3-fluoropyrrolidine-1-carbonyl)-2-methyl-2,3-dihydro-1H-pyrido[2,3-b][1,4]oxazin-1-yl)ethan-1-one]"
0.5,0.3,6,"C[C@@H]1CN(CC(=O)N2c3cc(Cc4ccc(F)cc4)c(CO)nc3OC[C@@H]2C)[C@@H](CN2CCOC[C@H]2C)CN1 [Compound 25, 1-((S)-7-(4-fluorobenzyl)-6-(hydroxymethyl)-2-methyl-2,3-dihydro-1H-pyrido[2,3-b][1,4]oxazin-1-yl)-2-((2R,5R)-5-methyl-2-(((R)-3-methylmorpholino)methyl)piperazin-1-yl)ethan-1-one]"
0.29,0.13,8.2,"C[C@@H]1CN(CC(=O)N2c3cc(Cc4ccc(F)cc4)c(C(=O)NCC4CCN(C)CC4)nc3OC[C@@H]2C)[C@@H](CN2[C@H](C)COC[C@H]2C)CN1 [Compound 98, (S)-1-(2-((2R,5R)-2-(((3R,5R)-3,5-dimethylmorpholino)methyl)-5-methylpiperazin-1-yl)acetyl)-7-(4-fluorobenzyl)-2-methyl-N-((1-methylpiperidin-4-yl)methyl)-2,3-dihydro-1H-pyrido[2,3-b][1,4]oxazine-6-carb oxamide]"
1.8,0.74,47,CC(C)C[C@H]1COc2ncc(Cc3ccc(F)cc3)cc2N1C(=O)CN1C[C@@H](C)NC[C@@H]1CN1CCOC[C@H]1C [Compound 33]
0.42,0.35,7.6,"C[C@@H]1CN(CC(=O)N2c3cc(Cc4ccc(F)cc4)c(C(=O)N4CCOCC4)nc3OC[C@@H]2C)[C@@H](CN2[C@H](C)COC[C@H]2C)CN1 [Example 72, 2-((2R,5R)-2-(((3R,5R)-3,5-dimethylmorpholino)methyl)-5-methylpiperazin-1-yl)-1-((S)-7-(4-fluorobenzyl)-2-methyl-6-(morpholine-4-carbonyl)-2,3-dihydro-1H-pyrido[2,3-b][1,4]oxazin-1-yl)ethan-1-one]"
0.44,0.22,4.4,"CCNC(=O)c1nc2c(cc1Cc1ccc(F)cc1)N(C(=O)CN1C[C@@H](C)NC[C@@H]1CN1[C@H](C)COC[C@H]1C)[C@@H](C)CO2 [Example 65, (S)-1-(2-((2R,5R)-2-(((3R,5R)-3,5-dimethylmorpholino)methyl)-5-methylpiperazin-1-yl)acetyl)-N-ethyl-7-(4-fluorobenzyl)-2-methyl-2,3-dihydro-1H-pyrido[2,3-b][1,4]oxazine-6-carboxamide]"
0.39,0.24,6.8,C[C@@H]1CN(CC(=O)N2c3cc(Cc4ccc(F)cc4)c(C(=O)NC(C)(C)C)nc3OC[C@@H]2C)[C@@H](CN2[C@H](C)COC[C@H]2C)CN1 [Compound 120]
0.93,0.36,20,C[C@@H]1CN(CC(=O)N2c3cc(Cc4ccc(F)cc4)cnc3OC[C@@H]2c2ccccc2)[C@@H](CN2[C@H](C)COC[C@H]2C)CN1 [Compound 44]
0.73,0.33,8.1,"CC(C)OC[C@@H]1COCCN1C[C@H]1CN[C@H](C)CN1CC(=O)N1c2cc(Cc3ccc(F)cc3)c(C(N)=O)nc2OC[C@@H]1C [Example 62, (S)-7-(4-fluorobenzyl)-1-(2-((2R,5R)-2-(((S)-3-(isopropoxymethyl)morpholino)methyl)-5-methylpiperazin-1-yl)acetyl)-2-methyl-2,3-dihydro-1H-pyrido[2,3-b][1,4]oxazine-6-carboxamide]"
0.62,0.26,14,"CC[C@H]1COc2ncc(Cc3ccc(F)cc3)cc2N1C(=O)CN1C[C@@H](C)NC[C@@H]1CN1CCOC[C@H]1C [Compound 28, 1-((S)-2-ethyl-7-(4-fluorobenzyl)-2,3-dihydro-1H-pyrido[2,3-b][1,4]oxazin-1-yl)-2-((2R,5R)-5-methyl-2-(((R)-3-methylmorpholino)methyl)piperazin-1-yl)ethan-1-one]"
1.9,1.2,95,"COC[C@H]1COc2nc(CO)c(Cc3ccc(F)cc3)cc2N1C(=O)CN1C[C@@H](C)NC[C@@H]1CN1CCOC[C@H]1C [Compound 57, 1-((S)-7-(4-fluorobenzyl)-6-(hydroxymethyl)-2-(methoxymethyl)-2,3-dihydro-1H-pyrido[2,3-b][1,4]oxazin-1-yl)-2-((2R,5R)-5-methyl-2-(((R)-3-methylmorpholino)methyl)piperazin-1-yl)ethan-1-one]"
0.28,0.15,4.4,"C[C@@H]1CN(CC(=O)N2c3cc(Cc4ccc(F)cc4)c(C(=O)NC4CCOCC4)nc3OC[C@@H]2C)[C@@H](CN2[C@H](C)COC[C@H]2C)CN1 [Example 76, (S)-1-(2-((2R,5R)-2-(((3R,5R)-3,5-dimethylmorpholino)methyl)-5-methylpiperazin-1-yl)acetyl)-7-(4-fluorobenzyl)-2-methyl-N-(tetrahydro-2H-pyran-4-yl)-2,3-dihydro-1H-pyrido[2,3-b][1,4]oxazine-6-carboxamide]"
